Measured values taken from patent US9493446B2, “Orexin receptor antagonists which are [ortho bi-(hetero-)aryl]-[2-(meta bi-(hetero-)aryl)-pyrrolidin-1-yl]-methanone derivatives” (Actelion Pharmaceuticals Ltd, priority 2012, dated 2016).
Read-outs that look alike come from different tables or passages of the source.

Columns and labels:
human orexin-2 receptor = human orexin-2 receptor (Homo sapiens (Human), UniProt O43614); experiment: Intracellular calcium measurement (FLIPR), CHO cells expressing human orexin-2 receptor, 3 nM orexin-A; format: cell-based; conditions: read-out: IC50 OX2
human orexin-2 receptor, sequence (O43614 whole entry): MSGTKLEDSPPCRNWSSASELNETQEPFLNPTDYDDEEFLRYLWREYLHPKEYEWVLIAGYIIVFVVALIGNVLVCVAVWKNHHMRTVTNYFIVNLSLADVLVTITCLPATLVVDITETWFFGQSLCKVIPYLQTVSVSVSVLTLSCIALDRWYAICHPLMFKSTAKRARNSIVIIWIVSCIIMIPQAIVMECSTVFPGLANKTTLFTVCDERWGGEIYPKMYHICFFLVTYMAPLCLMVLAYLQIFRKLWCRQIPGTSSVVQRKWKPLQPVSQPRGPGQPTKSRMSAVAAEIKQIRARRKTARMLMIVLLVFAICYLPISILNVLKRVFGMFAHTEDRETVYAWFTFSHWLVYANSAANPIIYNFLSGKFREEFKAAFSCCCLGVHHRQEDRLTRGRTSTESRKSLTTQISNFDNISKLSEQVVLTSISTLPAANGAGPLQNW
How it was run: (§1)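 Antagonist is added 120 min before agonist. Fluo-4 AM-loaded CHO cells carry human orexin-1 or orexin-2 receptor, and calcium is read by FLIPR.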

orexin-1 = orexin-1 (Homo sapiens (Human), UniProt O43613); experiment: Intracellular calcium measurement (FLIPR), CHO cells expressing human orexin-1 receptor, 3 nM orexin-A; format: cell-based; conditions: CHO cells expressing human orexin-1 receptor, FLIPR, 3 nM orexin-A; geometric mean if determined several times; read-out: IC50 OX1
orexin-1, sequence (O43613 whole entry): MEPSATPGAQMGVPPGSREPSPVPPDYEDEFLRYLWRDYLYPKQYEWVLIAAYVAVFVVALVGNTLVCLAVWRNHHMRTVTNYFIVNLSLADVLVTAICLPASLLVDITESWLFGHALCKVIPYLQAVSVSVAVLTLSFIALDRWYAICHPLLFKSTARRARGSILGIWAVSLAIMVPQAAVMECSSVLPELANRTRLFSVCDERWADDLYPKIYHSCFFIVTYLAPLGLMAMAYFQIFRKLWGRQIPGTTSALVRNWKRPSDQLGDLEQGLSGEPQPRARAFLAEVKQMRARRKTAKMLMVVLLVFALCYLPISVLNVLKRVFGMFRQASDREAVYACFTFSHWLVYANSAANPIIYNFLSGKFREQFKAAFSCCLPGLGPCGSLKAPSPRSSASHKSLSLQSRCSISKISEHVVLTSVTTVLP
How it was run: as §1

[1] = CHO cells expressing human orexin-2 receptor, FLIPR, 3 nM orexin-A, geometric mean if determined several times

SMILES | IC50 (human orexin-2 receptor; [1]) [nM] | IC50 (orexin-1) [nM] | IC50 (human orexin-2 receptor) [nM]
COc1cc(C(=O)N2CCC[C@H]2c2nc(-c3cccc(F)c3OC)no2)c(-n2nccn2)cc1C [compound 201, {(S)-2-[3-(3-Fluoro-2-methoxy-phenyl)-[1,2,4]oxadiazol-5-yl]-pyrrolidin-1-yl}-(5-methoxy-4-methyl-2-[1,2,3]triazol-2-yl-phenyl)-methanone] | 2 | 27 | 
COc1c(F)cccc1-c1noc([C@@H]2CCCN2C(=O)c2cccc(F)c2-c2ccn[nH]2)n1 [compound 202, {(S)-2-[3-(3-Fluoro-2-methoxy-phenyl)-[1,2,4]oxadiazol-5-yl]-pyrrolidin-1-yl}-[3-fluoro-2-(2H-pyrazol-3-yl)-phenyl]-methanone] | 10 | 53 | 
COc1c(F)cccc1-c1noc([C@@H]2CCCN2C(=O)c2cc(C)ccc2-c2ccccn2)n1 [compound 203, {(S)-2-[3-(3-Fluoro-2-methoxy-phenyl)-[1,2,4]oxadiazol-5-yl]-pyrrolidin-1-yl}-(5-methyl-2-pyridin-2-yl-phenyl)-methanone] | 16 | 56 | 
COc1c(F)cccc1-c1noc([C@@H]2CCCN2C(=O)c2ccc(Cl)cc2-n2nccn2)n1 [compound 204] |  | 65 | 10
COc1c(F)cccc1-c1noc([C@@H]2CCCN2C(=O)c2ccc(C(F)(F)F)cc2-n2nccn2)n1 [compound 205, {(S)-2-[3-(3-Fluoro-2-methoxy-phenyl)-[1,2,4]oxadiazol-5-yl]-pyrrolidin-1-yl}-(2-[1,2,3]triazol-2-yl-4-trifluoromethyl-phenyl)-methanone] | 43 | 340 | 
COc1cc(C(=O)N2CCC[C@H]2c2nc(-c3cccc(F)c3OC)no2)c(-n2nccn2)cc1F [compound 206, {(S)-2-[3-(3-Fluoro-2-methoxy-phenyl)-[1,2,4]oxadiazol-5-yl]-pyrrolidin-1-yl}-(4-fluoro-5-methoxy-2-[1,2,3]triazol-2-yl-phenyl)-methanone] | 10 | 409 | 
COc1c(F)cccc1-c1noc([C@@H]2CCCN2C(=O)c2cc(F)cc(C)c2-n2nccn2)n1 [compound 207, {(S)-2-[3-(3-Fluoro-2-methoxy-phenyl)-[1,2,4]oxadiazol-5-yl]-pyrrolidin-1-yl}-(5-fluoro-3-methyl-2-[1,2,3]triazol-2-yl-phenyl)-methanone] | 565 | 1810 | 
COc1cc(C(=O)N2CCC[C@H]2c2nc(-c3cccc(F)c3OC)no2)c(-n2nccn2)cc1OC [compound 208, (4,5-Dimethoxy-2-[1,2,3]triazol-2-yl-phenyl)-{(S)-2-[3-(3-fluoro-2-methoxy-phenyl)-[1,2,4]oxadiazol-5-yl]-pyrrolidin-1-yl}-methanone] | 20 | 225 | 
CCOc1ncccc1-c1noc([C@@H]2CCCN2C(=O)c2cc(C)cc(C)c2-n2nccn2)n1 [compound 209, (3,5-Dimethyl-2-[1,2,3]triazol-2-yl-phenyl)-{(S)-2-[3-(2-ethoxy-pyridin-3-yl)-[1,2,4]oxadiazol-5-yl]-pyrrolidin-1-yl}-methanone] | 21 | 56 | 
CCOc1ncccc1-c1noc([C@@H]2CCCN2C(=O)c2ccc(C)cc2-n2nccn2)n1 [compound 211, {(S)-2-[3-(2-Ethoxy-pyridin-3-yl)-[1,2,4]oxadiazol-5-yl]-pyrrolidin-1-yl}-(4-methyl-2-[1,2,3]triazol-2-yl-phenyl)-methanone] | 37 | 81 | 
CCOc1ncccc1-c1noc([C@@H]2CCCN2C(=O)c2cc(C)c(C)cc2-n2nccn2)n1 [compound 212, (4,5-Dimethyl-2-[1,2,3]triazol-2-yl-phenyl)-{(S)-2-[3-(2-ethoxy-pyridin-3-yl)-[1,2,4]oxadiazol-5-yl]-pyrrolidin-1-yl}-methanone] | 3 | 6 | 
CCOc1ncccc1-c1noc([C@@H]2CCCN2C(=O)c2nc(C)ccc2-n2nccn2)n1 [compound 213, {(S)-2-[3-(2-Ethoxy-pyridin-3-yl)-[1,2,4]oxadiazol-5-yl]-pyrrolidin-1-yl}-(6-methyl-3-[1,2,3]triazol-2-yl-pyridin-2-yl)-methanone] | 46 | 169 | 
CCOc1ncccc1-c1noc([C@@H]2CCCN2C(=O)c2cc(OC)c(C)cc2-n2nccn2)n1 [compound 215, {(S)-2-[3-(2-Ethoxy-pyridin-3-yl)-[1,2,4]oxadiazol-5-yl]-pyrrolidin-1-yl}-(5-methoxy-4-methyl-2-[1,2,3]triazol-2-yl-phenyl)-methanone] | 3 | 18 | 
CCOc1ncccc1-c1noc([C@@H]2CCCN2C(=O)c2cccc(F)c2-c2ccn[nH]2)n1 [compound 216, {(S)-2-[3-(2-Ethoxy-pyridin-3-yl)-[1,2,4]oxadiazol-5-yl]-pyrrolidin-1-yl}-[3-fluoro-2-(2H-pyrazol-3-yl)-phenyl]-methanone] | 27 | 76 | 
CCOc1ncccc1-c1noc([C@@H]2CCCN2C(=O)c2cc(C)ccc2-c2ccccn2)n1 [compound 217, {(S)-2-[3-(2-Ethoxy-pyridin-3-yl)-[1,2,4]oxadiazol-5-yl]-pyrrolidin-1-yl}-(5-methyl-2-pyridin-2-yl-phenyl)-methanone] | 14 | 40 | 
CCOc1ncccc1-c1noc([C@@H]2CCCN2C(=O)c2ccccc2-n2nccn2)n1 [compound 218, {(S)-2-[3-(2-Ethoxy-pyridin-3-yl)-[1,2,4]oxadiazol-5-yl]-pyrrolidin-1-yl}-(2-[1,2,3]triazol-2-yl-phenyl)-methanone] | 99 | 331 | 
CCOc1ncccc1-c1noc([C@@H]2CCCN2C(=O)c2cc(OC)ccc2-n2nccn2)n1 [compound 220, {(S)-2-[3-(2-Ethoxy-pyridin-3-yl)-[1,2,4]oxadiazol-5-yl]-pyrrolidin-1-yl}-(5-methoxy-2-[1,2,3]triazol-2-yl-phenyl)-methanone] | 16 | 53 | 
CCOc1ncccc1-c1noc([C@@H]2CCCN2C(=O)c2ccc(C(F)(F)F)cc2-n2nccn2)n1 [compound 222, {(S)-2-[3-(2-Ethoxy-pyridin-3-yl)-[1,2,4]oxadiazol-5-yl]-pyrrolidin-1-yl}-(2-[1,2,3]triazol-2-yl-4-trifluoromethyl-phenyl)-methanone] | 121 | 351 | 
CCOc1ncccc1-c1noc([C@@H]2CCCN2C(=O)c2cc(OC)c(F)cc2-n2nccn2)n1 [compound 223, {(S)-2-[3-(2-Ethoxy-pyridin-3-yl)-[1,2,4]oxadiazol-5-yl]-pyrrolidin-1-yl}-(4-fluoro-5-methoxy-2-[1,2,3]triazol-2-yl-phenyl)-methanone] | 17 | 253 | 
CCOc1ncccc1-c1noc([C@@H]2CCCN2C(=O)c2cc(C)ccc2-c2ncco2)n1 [compound 224, {(S)-2-[3-(2-Ethoxy-pyridin-3-yl)-[1,2,4]oxadiazol-5-yl]-pyrrolidin-1-yl}-(5-methyl-2-oxazol-2-yl-phenyl)-methanone] | 6 | 19 | 
CCOc1ncccc1-c1noc([C@@H]2CCCN2C(=O)c2cc(F)cc(C)c2-n2nccn2)n1 [compound 225, {(S)-2-[3-(2-Ethoxy-pyridin-3-yl)-[1,2,4]oxadiazol-5-yl]-pyrrolidin-1-yl}-(5-fluoro-3-methyl-2-[1,2,3]triazol-2-yl-phenyl)-methanone] | 600 | 964 | 
